Assay results published in patent publication US20240239767A1 (AstraZeneca AB, priority 2022, published 2024).

How the values were obtained:
PCSK9 [1] = molecular target: T1, PCSK9 (Homo sapiens, UniProt Q8NBP7); conditions: clinical trials, compared to placebo (Elbitar 2016); cited from earlier work
Target sequence in this assay (Q8NBP7 153-692): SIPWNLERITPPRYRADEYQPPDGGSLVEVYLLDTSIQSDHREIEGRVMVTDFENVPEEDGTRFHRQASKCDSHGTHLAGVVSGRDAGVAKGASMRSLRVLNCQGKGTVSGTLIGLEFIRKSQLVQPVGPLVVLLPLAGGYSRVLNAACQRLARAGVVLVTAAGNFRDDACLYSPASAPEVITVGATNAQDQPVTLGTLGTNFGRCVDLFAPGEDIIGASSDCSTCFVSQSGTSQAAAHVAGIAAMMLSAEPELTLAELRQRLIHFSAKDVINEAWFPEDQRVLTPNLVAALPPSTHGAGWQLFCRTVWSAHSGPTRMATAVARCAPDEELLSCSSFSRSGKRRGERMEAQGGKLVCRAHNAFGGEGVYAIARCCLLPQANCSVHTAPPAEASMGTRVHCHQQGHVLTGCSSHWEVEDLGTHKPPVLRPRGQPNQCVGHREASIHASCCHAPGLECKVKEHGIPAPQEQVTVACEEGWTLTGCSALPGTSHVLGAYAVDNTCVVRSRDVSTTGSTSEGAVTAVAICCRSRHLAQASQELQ

PCSK9 [2] = molecular target: T2, PCSK9 (Homo sapiens, UniProt Q8NBP7, G670E/V474I); assay: biochemical
Target sequence in this assay (Q8NBP7 with tags, fused parts or gaps V474I/G670E): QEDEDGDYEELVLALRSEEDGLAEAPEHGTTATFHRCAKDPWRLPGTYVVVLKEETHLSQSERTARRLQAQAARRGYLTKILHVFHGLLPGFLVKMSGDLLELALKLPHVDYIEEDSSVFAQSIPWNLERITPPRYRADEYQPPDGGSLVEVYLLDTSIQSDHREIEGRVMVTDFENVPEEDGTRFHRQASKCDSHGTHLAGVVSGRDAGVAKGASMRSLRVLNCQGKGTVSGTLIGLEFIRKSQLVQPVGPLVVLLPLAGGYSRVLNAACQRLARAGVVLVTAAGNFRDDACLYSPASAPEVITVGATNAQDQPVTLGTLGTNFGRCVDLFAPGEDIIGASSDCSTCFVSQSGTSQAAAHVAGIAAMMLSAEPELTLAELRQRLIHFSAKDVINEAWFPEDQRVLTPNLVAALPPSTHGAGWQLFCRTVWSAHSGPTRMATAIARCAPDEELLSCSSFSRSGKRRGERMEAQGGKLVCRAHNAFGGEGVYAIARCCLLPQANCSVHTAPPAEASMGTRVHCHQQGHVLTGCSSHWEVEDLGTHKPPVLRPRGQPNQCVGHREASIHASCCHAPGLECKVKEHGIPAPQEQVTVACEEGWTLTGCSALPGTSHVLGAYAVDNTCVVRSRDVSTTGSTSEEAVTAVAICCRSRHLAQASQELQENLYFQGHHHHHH

PCSK9 [3] = molecular target: T2, PCSK9; assay: cell-based
Target sequence in this assay (Q8NBP7 31-152): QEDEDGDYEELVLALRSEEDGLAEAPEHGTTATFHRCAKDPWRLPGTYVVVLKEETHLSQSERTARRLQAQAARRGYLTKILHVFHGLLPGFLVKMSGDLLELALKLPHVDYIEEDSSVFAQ
Target sequence in this assay (Q8NBP7 153-692 V474I/G670E): as the sequence (Q8NBP7 153-692) above, with V322I, G518E counted along it
Description: This assay measures for PCSK9 antagonist activity based on a test compound's capacity to restore LDL-C uptake in HepG2 cells. The assay is based on exogenous PCSK9 and LDL-C complexed with a pH-sensitive dye. Outside the cells, at neutral pH, the pHrodo Red-LDL is dimly fluorescent but upon LDLR mediated endocytosis it fluoresces brightly. PCSK9 traffics the LDLR to intracellular degradation and reduces uptake of LDL-C. Inhibition of PCSK9 reduces LDLR degradation and the increased LDL-C uptake is quantified by fluorescence microscopy.
Cell medium: MEM supplemented with 10% FBS, 1× NEAA and Sodium Pyruvate
Assay medium: OptiMem supplemented with penicillin/streptomycin
Cells: HepG2 (ATCC #HB-8065)
Cryopreserved HepG2 cells were thawed in assay medium and centrifuged for 5 min at 250 g. Supernatant was discarded and the cell pellet resuspended in cell medium and counted with a Nucleocounter. Cells were again centrifuged 5 min at 250 g and the pellet was resuspended to 500000 cells/mL in assay medium. • 2. 20 μL of above cell mix was dispensed into black pclear TC treated 384 well plates with Multidrop Combi and left at room temperature for 20 minutes. • 3. Plates were incubated at 37° C., 5% CO2 for 24 h
Test compounds were prepared in concentration response in DMSO with a half-log dilution factor in DMSO in Echo 384 LDV plates starting at 10 mM. • 2. 30 nL of above test compounds were dispensed with Echo 655 to cells for a top concentration of 10 μM • 3. […] Plates were incubated at 37° C., 5% CO2 for 24 h
10 μL pHrodo Red-LDL in assay medium was dispensed to cells with Multidrop Combi for 6 μg/mL • 2. Plates were incubated at 37° C., 5% CO2 and imaged with the Incucyte S3 after 4 h and 24 h
Image data was processed using Incucyte 2021, a software to identify cells and red fluorescent intensity. Screener was used to further process data. Data was normalized as % effect of the signal between median values of the on-plate controls of DMSO and 100 nM Evolocumab according to the formula % effect=−100*(x−DMSO)/(Evolocumab−DMSO) where x equals the measured signal. Concentration response data of the normalized values were fitted using a four-parameter logistic fit.

PCSK9 [4] = molecular target: T1, PCSK9; assay: Assay 2 - Biophysical human PCSK9 assay (SPR, Biacore); format: binding; parameters: biotinylated human PCSK9 (31-692)-Avi-His6; conditions: geometric mean; SPR single-cycle kinetics, 30° C.; read-out: Assay 2 (PCSK9 BIAcore DBA CR) GMean Kd
Experimental: The SPR binding experiments were performed on a Biacore S200 optical biosensor unit at 30° C. A Series S Sensor Chip SA that is designed to bind biotinylated molecules for interaction analysis in Biacore systems was equilibrated at room temperature prior to use. The running buffer for protein tethering and subsequent ligand binding experiments was 10 mM HEPES pH 7.4, 150 mM NaCl, 0.05% (v/v) Tween 20 pH 7.4.
For the surface tethering of PCSK9, biotinylated human PCSK9 (31-692)-Avi-His6 at a concentration of 0.5 mg/mL was used. Prior to the surface tethering, the surface was exposed to a solution of 50 mM NaOH, 500 mM NaCl via 3 consecutive injections of this solution with a contact time of 60 s and a flowrate of 10 μL min- to remove non-conjugated streptavidin. The PCSK9 protein was diluted to a concentration of 20 μg/mL using running buffer and injected with a contact time of 180-300 s and a flowrate of 10 μL min^−1 over a single flow channel (typically flow channel 2 or flow channel 4) with the aim to achieve protein capture levels of >5000 response units (RU). Remaining biotin binding sites were blocked via 2 consecutive injections of a 10 μM D-biotin solution in running buffer with a contact time of 60 s and a flowrate of 10 μL min^−1 over all flow-channels.
The binding experiments were all performed at a flow rate of 30 μL min^−1 and by employing the method of single-cycle kinetics. This approach involves the sequential injection of a compound concentration series without regeneration steps. A contact time between 90-150 s was selected, which was followed by a 40 min dissociation phase to allow for a proper estimation of the dissociation rate constant. Test compounds were delivered in DMSO at a concentration of 10 mM and a digital dispenser HP D300 was used to set up the compound concentration series using 6 concentrations. The tested concentrations have been 30, 100, 300, 1000, 3000 and 10000 nM. Prior to injecting any compound, the surfaces were equilibrated by injecting running buffer over them in three separate pulses. The data collection rate was set to 10 Hz.
The raw sensorgrams of the compound injections were first subjected to reference subtraction (subtracting the signal from flow channel 1 and/or 3 from the signal from channels 2 and/or 4 respectively) and then blank subtraction (subtracting the signal from injecting DMSO controls from the reference subtracted data). The resulting double-referenced sensorgrams were then fitted using a 1:1 binding interaction model using the manufactures software package to extract kinetic- and affinity data.
Target sequence in this assay (Q8NBP7 31-692): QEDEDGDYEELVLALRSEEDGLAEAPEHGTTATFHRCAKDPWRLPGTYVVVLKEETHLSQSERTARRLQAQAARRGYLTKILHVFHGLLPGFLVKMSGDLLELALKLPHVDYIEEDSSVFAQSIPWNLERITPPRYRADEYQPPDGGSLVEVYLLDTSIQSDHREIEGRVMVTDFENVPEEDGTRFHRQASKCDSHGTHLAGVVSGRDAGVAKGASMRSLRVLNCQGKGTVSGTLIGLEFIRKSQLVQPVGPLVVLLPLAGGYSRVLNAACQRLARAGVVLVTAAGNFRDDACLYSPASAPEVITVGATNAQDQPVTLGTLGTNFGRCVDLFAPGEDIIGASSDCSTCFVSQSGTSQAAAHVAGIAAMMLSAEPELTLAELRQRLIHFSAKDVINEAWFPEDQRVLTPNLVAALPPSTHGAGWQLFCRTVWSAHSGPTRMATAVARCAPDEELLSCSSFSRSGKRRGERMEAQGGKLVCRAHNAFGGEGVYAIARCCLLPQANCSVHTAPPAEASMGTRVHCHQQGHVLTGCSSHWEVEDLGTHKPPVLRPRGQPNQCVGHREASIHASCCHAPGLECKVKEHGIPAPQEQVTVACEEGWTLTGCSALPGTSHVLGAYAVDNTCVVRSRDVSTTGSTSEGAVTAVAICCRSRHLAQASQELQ

[5] = molecular target: GSK3b (Glycogen synthase kinase-3 beta) (Homo sapiens, UniProt P49841); assay: Assay 6 - GSK3b assay (ThermoFisher, FRET Z-Lyte); format: biochemical; conditions: geometric mean; ATP Conc: 10.000 μM; read-out: Assay 6 (GSK3B FRET-Z-Lyte CR) GMean IC50 (μM) ATP Conc: 10.000
Sequence of GSK3b (Glycogen synthase kinase-3 beta) (P49841 whole entry): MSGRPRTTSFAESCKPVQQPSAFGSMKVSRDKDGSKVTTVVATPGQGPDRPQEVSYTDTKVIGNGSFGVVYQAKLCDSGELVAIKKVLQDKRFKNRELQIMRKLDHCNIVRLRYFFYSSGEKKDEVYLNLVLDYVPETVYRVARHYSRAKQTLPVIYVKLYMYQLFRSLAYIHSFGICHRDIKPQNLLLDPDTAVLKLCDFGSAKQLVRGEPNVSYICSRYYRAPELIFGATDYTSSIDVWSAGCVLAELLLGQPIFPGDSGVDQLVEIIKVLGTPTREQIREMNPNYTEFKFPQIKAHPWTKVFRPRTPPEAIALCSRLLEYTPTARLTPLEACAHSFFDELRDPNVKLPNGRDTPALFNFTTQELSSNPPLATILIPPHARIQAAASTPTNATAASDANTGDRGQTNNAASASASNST
Method in brief: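 Z-Lyte FRET kinase assay: 0.22-0.92 ng GSK3β with 2 μM Ser/Thr 09 peptide in 50 mM HEPES pH 7.5, 10 mM MgCl2, 1 mM EGTA, 0.01% BRIJ-35, 60 min at room temperature, then 60 min development. Compounds in 1% DMSO, 10-point 3-fold dilutions from 10 μM; sigmoidal dose-response fit.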

[6] = molecular target: T3, potassium ion channel hERG (human Ether-á-go-go-Related Gene) (Homo sapiens, UniProt Q12809); assay: Assay 5 - hERG assay (SyncroPatch 384PE patch clamp, CHO cells); format: cell-based; conditions: geometric mean, CHO cells over-expressing hERG, read-out: Assay 5 (hERG Hu CHO IF EPh CR-Syncro) GMean IC50
T3 construct: expressed in transfected cells; host or cells: Chinese hamster ovary K1 (CHO)
T3 sequence (Q12809 whole entry): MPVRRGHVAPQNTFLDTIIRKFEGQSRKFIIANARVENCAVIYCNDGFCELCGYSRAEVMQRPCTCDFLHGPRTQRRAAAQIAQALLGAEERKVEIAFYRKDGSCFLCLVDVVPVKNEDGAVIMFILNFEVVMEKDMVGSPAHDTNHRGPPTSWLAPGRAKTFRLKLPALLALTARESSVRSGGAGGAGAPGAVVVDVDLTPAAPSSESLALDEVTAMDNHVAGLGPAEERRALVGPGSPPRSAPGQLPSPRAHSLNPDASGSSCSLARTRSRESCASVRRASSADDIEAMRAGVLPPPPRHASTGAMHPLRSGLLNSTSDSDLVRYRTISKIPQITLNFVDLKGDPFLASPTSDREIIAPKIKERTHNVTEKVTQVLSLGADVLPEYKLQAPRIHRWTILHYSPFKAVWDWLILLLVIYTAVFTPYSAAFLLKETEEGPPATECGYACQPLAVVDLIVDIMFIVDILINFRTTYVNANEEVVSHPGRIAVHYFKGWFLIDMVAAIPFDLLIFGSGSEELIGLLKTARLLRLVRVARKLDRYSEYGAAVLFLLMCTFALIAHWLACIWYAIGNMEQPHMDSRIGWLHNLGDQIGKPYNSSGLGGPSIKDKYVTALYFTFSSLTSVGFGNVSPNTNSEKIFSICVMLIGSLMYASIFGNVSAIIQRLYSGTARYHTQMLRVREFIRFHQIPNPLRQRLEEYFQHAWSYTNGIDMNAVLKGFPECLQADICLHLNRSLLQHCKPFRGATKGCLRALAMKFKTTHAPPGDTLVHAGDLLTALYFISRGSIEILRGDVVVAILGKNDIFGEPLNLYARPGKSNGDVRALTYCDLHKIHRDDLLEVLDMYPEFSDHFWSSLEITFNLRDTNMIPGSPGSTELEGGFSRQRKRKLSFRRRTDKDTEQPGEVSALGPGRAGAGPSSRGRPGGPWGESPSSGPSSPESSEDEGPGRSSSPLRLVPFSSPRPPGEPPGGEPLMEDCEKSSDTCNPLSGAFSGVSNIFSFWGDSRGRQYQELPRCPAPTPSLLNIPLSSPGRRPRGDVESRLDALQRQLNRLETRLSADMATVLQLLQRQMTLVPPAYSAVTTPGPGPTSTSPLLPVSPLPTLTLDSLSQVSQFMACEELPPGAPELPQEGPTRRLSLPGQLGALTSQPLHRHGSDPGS
Method in brief: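 Automated whole-cell patch clamp at room temperature on CHO-K1 cells over-expressing hERG, using K-fluoride/escin internal solution (pH 7.2) and NMDG-containing external solution (pH 7.4). Compounds were tested in a 6-point cumulative format, 0.33% final DMSO. Wells accepted only with seal >30 MegaOhm, Z′>0.4 and current >0.2 nA.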

Row | Molecule | decrease in LDL levels (PCSK9 [1]) | IC50 (PCSK9 [2]) | IC50 (PCSK9 [3]) | Kd (PCSK9 [4]) | IC50 [5] | IC50 [6]
1 | alirocumab | about 50% |  |  |  |  | 
2 | COc1cccn(-c2ccc(N[C@H]3CC[C@H](Nc4nc5cccnc5o4)C3)nc2)c1=O [Example 12, 3-Methoxy-6′-(((1S,3S)-3-(oxazolo[5,4-b]pyridin-2-ylamino)cyclopentyl)amino)-2H-[1,3′-bipyridin]-2-one] |  | 3.5 nM | 158 nM | 3 nM | > 10 µM | > 40000 nM
